According to patent US20160122821A1, “GENETIC MARKERS OF ANTIPSYCHOTIC RESPONSE” (SUREGENE, LLC, priority 2013, published 2016):

Experiments:
[1] = test system: Caucasian patients with schizophrenia (CATIE); conditions: SNPs in NPAS3; Lavedan et al., 2009; cited from earlier work
[2] = test system: Caucasian patients with schizophrenia (CATIE); assay: Genetic association (linear regression, additive model) of SNP alleles with MMRM-modelled change in PANSS Total Score under antipsychotic treatment, CATIE trial; type: in vivo, human; conditions: rs1315115, located in an intron of NPAS3
Method: For the CATIE study, individual cases were diagnosed as having SZ based on DSM-III/IV criteria. Treatment response for all patients was assessed using the Positive and Negative Syndrome Scale (PANSS) (Kay et al., 1987; Kay et al., 1989; Leucht et al., 2005). […] To avoid possible bias in post hoc selection of a treatment response variable, the inventors used the mixed model repeated measures (MMRM) approach developed by van den Oord and coworkers (van den Oord et al., 2009). […] The design of the CATIE study, including details of consent for genetic analyses, has been described in detail by others (Lieberman et al., 2005; Stroup et al., 2003; Sullivan et al., 2008). Only retrospective genetic analyses, judged to be exempt from human studies requirements by an IRB, were conducted in the current study. Consented DNA samples were obtained from the Rutgers University Cell and DNA Repository in collaboration with […]. […] All of these patients self-reported as having exclusively European ancestry. […] Genotyping was performed on a fee for service basis according to Illumina's standard operating procedures. Raw intensity files were processed using Illumina® BeadStudio version 1.7.4 software. […] Only two of these had been previously genotyped in the CATIE sample. […] To allow comparison to previously published PGx findings for CATIE and to avoid possible bias in post-hoc selection of a treatment response variable, the inventors used the mixed model repeated measures (MMRM) approach developed by Van den Oord and coworkers (van den Oord et al., 2009; […] et al., 2011). Briefly, this method models random effects by introducing random slopes for treatment effects, allowing treatment effects to be different across subjects. The MMRM approach serves to increase the statistical power to detect genetic associations by increasing the precision in measuring change in PANSS Total Score (PANSS-T) by accounting for variance due to baseline PANSS-T, and treatment, as well as smoothing out the random fluctuations in PANSS-T between visits due to various uncontrolled variables. […] Bozeman, Mont.). Quantile-Quantile (QQ) plots were prepared using the R statistical package version 2.14.1. For comparison purposes, original CATIE-provided SNP genotypes in specific genes were evaluated using the same genetic analysis. Haplotype association integrating newly generated and original genotypes for specific regions was carried out in SVS using haplotype blocks predefined by Haploview software. […] For each of the SNPs listed the reference SNP (rs) number is provided, which provides the known sequence context for the given SNP (see, e.g., National Center for Biotechnology Information (NCBI) SNP database available on the world wide web at ncbi.nlm.nih.gov/snp).

Structure (SMILES): COc1cc(C(C)=O)ccc1OCCCN1CCC(c2noc3cc(F)ccc23)CC1 [iloperidone]
- association of SNPs with response [1]: association of SNPs in NPAS3 with response

Structure (SMILES): Cc1nc2n(c(=O)c1CCN1CCC(c3noc4cc(F)ccc34)CC1)CCCC2 [Risperidone, risperidone]
- association of SNP with response [2]: associated with response
